In patent US11319303B2 (WIGEN BIOMEDICINE TECHNOLOGY (SHANGHAI) CO., LTD., priority 2017, dated 2022) one finds IC50 data, which are given here for 38 compounds.

pIC50: −log10 of the molar value. Counter-ions that a name gives are not always drawn.

The target of one assay is LC3B (Homo sapiens, UniProt Q9GZQ8). As to the kind of experiment: Fluorescence Polarization (FP) Assay: displacement of FITC-labeled peptide from GST-LC3B. The format is binding.
Settings: not given
On the procedure: The compounds of the present invention for regulating the autophagy-related protein LC3B were tested by Fluorescence Polarization (FP) Assay.
Fluorescence Polarization (FP) Assay Test
For orientation: In fluorescence polarisation assays a small probe gives low polarisation when free and higher when bound to something large.
One may read the pIC50 as −log10 of the IC50, conventionally taken in molar units. Turning to `CN(C)C=C1C(=O)CC(C2CCCCC2)CC1=O` (centres unmarked) [Compound 262, 4-((dimethylamino)methylene)-[1,1′-bi(cyclohexane)]-3,5-dione], the negative logarithm of the IC50 (pIC50) is above 5.52.

The assay is the same for the next values; noted with them: Fluorescence Polarization assay; GST-LC3B 180 nM, FITC-labeled peptide 18 nM, 25° C.; read-out: IC50.
For `CN(C)C=Nc1nc2c(C3CC(=O)C(=CNCCN4CCN(CCO)CC4)C(=O)C3)cccc2s1` (centres unmarked) [Compound 74, N′-(4-(4-(((2-(4-(2-hydroxyethyl)piperazin-1-yl)ethyl)amino)methylene)-3,5-dioxocyclohexyl)benzo[d]thiazol-2-yl)-N,N-dimethyl-formimidamide], the pIC50 was above 5.52.

With `CN(C)C=C1C(=O)CC(c2cccn2Cc2ccccc2)CC1=O` (centres unmarked) [Compound 288, 5-(1-benzyl-1H-pyrrol-2-yl)-2-((dimethylamino)methylene) cyclohexane-1,3-dione], the negative-log IC50 (pIC50) was 4.82 to 5.52.

Turning to `CN(C)C=C1C(=O)CC(c2cccnc2)CC1=O` (centres unmarked) [Compound 257, 2-((dimethylamino)methylene)-5-(pyridin-3-yl)cyclohexane-1,3-dione], the negative logarithm of the IC50 (pIC50) is 4.00 to 4.82.

For the compound `O=C1COCC(=O)C1=CNCCN1CCN(CCO)CC1` [Compound 12, 4-(((2-(4-(2-hydroxyethyl)piperazin-1-yl)ethyl)amino)methylene)-2H-pyran-3,5(4H,6H)-dione], the pIC50 is 3.00 to 4.00.

In the case of `O=C1CC(c2ccccc2-c2ccccc2)CC(=O)C1=CNCCN1CCN(CCO)CC1` (centres unmarked) [Compound 187, 5-([1,1′-biphenyl]-2-yl)-2-(((2-(4-(2-hydroxyethyl)piperazin-1-yl)ethyl)amino)methylene) cyclohexane-1,3-dione], the pIC50 was above 5.52.

`COCCOc1cc(C2CC(=O)C(=CNCCN3CCN(CCO)CC3)C(=O)C2)ccc1OC` (centres unmarked) [Compound 80, 2-(((2-(4-(2-hydroxyethyl)piperazin-1-yl)ethyl)amino)methylene)-5-(4-methoxy-3-(2-methoxyethoxy)phenyl) cyclohexane-1,3-dione]: the pIC50 is 4.00 to 4.82.

With `O=C1CC(c2ccc(OCCN3CCOCC3)nc2)CC(=O)C1=CNCCN1CCN(CCO)CC1` (centres unmarked) [Compound 89, 2-(((2-(4-(2-hydroxyethyl)piperazin-1-yl)ethyl)amino)methylene)-5-(6-(2-morpholinoethoxy)pyridin-3-yl)cyclohexane-1,3-dione], the pIC50 is 3.00 to 4.00.

On to `COc1cc(Br)c(C2CC(=O)C(=CNCCN(C)C)C(=O)C2)cc1OC` (centres unmarked) [Compound 379, 5-(2-bromo-4,5-dimethoxyphenyl)-2-(((2-(dimethylamino)ethyl)amino)methylene) cyclohexane-1,3-dione], for which the pIC50 is above 5.52.

For the compound `O=C1CC(c2ccc(C(F)(F)F)cc2)CC(=O)C1=CO` (centres unmarked) [Compound 437, 2-(hydroxymethylene)-5-(4-trifluoromethylphenyl) cyclohexane-1,3-dione], the pIC50 was 4.82 to 5.52.

Take `O=C1CC(c2ccccc2)NC(=O)C1=CNCCN1CCN(CCO)CC1` (centres unmarked) [Compound 96, 3-(((2-(4-(2-hydroxyethyl)piperazin-1-yl)ethyl)amino)methylene)-6-phenylpiperidine-2,4-dione]: the pIC50 was 3.00 to 4.00.

With `COc1cc(OC)c2c(c1Cl)O[C@@]1(C(=O)/C(=C\NCCN3CCN(CCO)CC3)C(=O)C[C@H]1C)C2=O` [Compound 15, (2R,6′R)-7-chloro-3′-(((2-(4-(2-hydroxyethyl)piperazin-1-yl)ethyl)amino)methylene)-4,6-dimethoxy-6′-methyl-3H-spiro[benzofuran-2,1′-cyclohexane]-2′,3,4′-trione], the pIC50 was 4.82 to 5.52.

As for `COCCOCCOc1ccccc1C1CC(=O)C(=CNCCN2CCN(CCO)CC2)C(=O)C1` (centres unmarked) [Compound 41], the pIC50 was 4.82 to 5.52.

Take `O=C1CC(c2c[nH]c3cccc(F)c23)CC(=O)C1=CNCCN1CCN(CCO)CC1` (centres unmarked) [Compound 24, 5-(4-fluoro-1H-indol-3-yl)-2-(((2-(4-(2-hydroxyethyl)piperazin-1-yl)ethyl)amino)methylene) cyclohexane-1,3-dione]: the pIC50 is above 5.52.

Regarding `COc1ccc(NC=C2C(=O)CC(c3ccccc3)CC2=O)cn1` (centres unmarked) [Compound 147, 2-(((6-methoxypyridin-3-yl)amino)methylene)-5-phenylcyclo-hexane-1,3-dione], the pIC50 was 4.00 to 4.82.

For `CN(C)CCNC=C1C(=O)CC(C(=O)Nc2ccc(Br)cc2)CC1=O` (centres unmarked) [Compound 360, N-(4-bromophenyl)-4-(((2-(dimethylamino)ethyl)amino)methylene)-3,5-dioxocyclohexane-1-carboxamide], the pIC50 is 4.82 to 5.52.

As to `O=C1CC(c2ccc(C(=O)N3CCOCC3)cc2)CC(=O)C1=CNCCN1CCN(CCO)CC1` (centres unmarked) [Compound 77, 2-(((2-(4-(2-hydroxyethyl)piperazin-1-yl)ethyl)amino)methylene)-5-(4-(morpholine-4-carbonyl)phenyl) cyclohexane-1,3-dione], the pIC50 was 4.00 to 4.82.

On to `O=C1Nc2c(cccc2C(F)(F)F)C(=O)/C1=C/NCCN1CCN(CCO)CC1` [Compound 197, 3-(((2-(4-(2-hydroxyethyl)piperazin-1-yl)ethyl)amino)methylene)-8-(trifluoromethyl) quinoline-2,4(1H,3H)-dione], for which the pIC50 was above 5.52.

On to `Cc1ccc(C2CC(=O)C(=CNCCN3CCN(S(=O)(=O)c4ccc(C)cc4)CC3)C(=O)C2)cc1` (centres unmarked) [Compound 227, 5-(p-tolyl)-2-(((2-(4-tosylpiperazin-1-yl)ethyl)amino)methylene) cyclohexane-1,3-dione], for which the pIC50 was 3.00 to 4.00.

With `O=C1CC(c2ccccc2)CC(=O)C1=CNC(=O)c1ccccn1` (centres unmarked) [Compound 307, N-((2,6-dioxo-4-phenylcyclo-hexylidene)methyl) picolinamide], the pIC50 was 4.82 to 5.52.

On to `CN(C)C=C1C(=O)CC(c2ccc3[nH]ncc3c2)CC1=O` (centres unmarked) [Compound 259, 2-((dimethylamino)methylene)-5-(1H-indazol-5-yl)cyclohexane-1,3-dione], for which the pIC50 was above 5.52.

Take `O=C1CC(c2ccccc2)CC(=O)C1=CNCCN1CCN(C(=O)c2cccnc2)CC1` (centres unmarked) [Compound 222, 2-(((2-(4-nicotinoylpiperazin-1-yl)ethyl)amino)methylene)-5-phenylcyclohexane-1,3-dione]: the pIC50 was above 5.52.

As for `O=C1CC(c2cccc3c2OCCO3)CC(=O)C1=CNCCN1CCN(CCO)CC1` (centres unmarked) [Compound 56, 5-(2,3-dihydrobenzo [b][1,4]dioxin-5-yl)-2-(((2-(4-(2-hydroxyethyl)piperazin-1-yl)ethyl)amino)methylene) cyclohexane-1,3-dione], the pIC50 was 4.82 to 5.52.

As to `O=C1CC(c2ccccc2)CC(=O)C1=CNc1ncc([N+](=O)[O-])s1` (centres unmarked) [Compound 150, 2-(((5-nitrothiazol-2-yl)amino)methylene)-5-phenylcyclohexane-1,3-dione], the pIC50 is above 5.52.

`O=C1CC2c3ccccc3CCC2C(=O)/C1=C\NCCN1CCN(CCO)CC1` (centres unmarked) [Compound 113, 2-(((2-(4-(2-hydroxyethyl)piperazin-1-yl)ethyl)amino)methylene)-4a,9,10,10a-tetrahydrophenanthrene-1,3(2H,4H)-dione]: the pIC50 was 3.00 to 4.00.

Turning to `CCC(=O)N1CCN(CCNC=C2C(=O)CC(c3ccccc3)CC2=O)CC1` (centres unmarked) [Compound 215, 5-phenyl-2-(((2-(4-propionylpiperazin-1-yl)ethyl)amino)methylene) cyclohexane-1,3-dione], the pIC50 is above 5.52.

Regarding `O=C1CC(C2CC2)CC(=O)C1=CNCCN1CCN(CCO)CC1` (centres unmarked) [Compound 67, 5-cyclopropyl-2-(((2-(4-(2-hydroxyethyl)piperazin-1-yl)ethyl)amino)methylene) cyclohexane-1,3-dione], the pIC50 is 3.00 to 4.00.

With `O=C1CC(c2cccs2)CC(=O)C1=CO` (centres unmarked) [Compound 455, 2-(hydroxy-methylene)-5-(2-thiophen)cyclo-hexane-1,3-dione potassium salt], the pIC50 was 4.82 to 5.52.

Regarding `O=C1CC(c2c[nH]c3ccccc23)CC(=O)C1=CNCCN1CCN(CCO)CC1` (centres unmarked) [Compound 39, 2-(((2-(4-(2-hydroxyethyl)piperazin-1-yl)ethyl)amino)methylene)-5-(1H-indol-3-yl) cyclohexane-1,3-dione], the pIC50 was above 5.52.

As to `O=C1CC(c2ccccc2)C(F)(F)C(=O)/C1=C/O` (centres unmarked) [Compound 452, 2-(hydroxymethylene)-4,4-difluoro-5-(phenyl)cyclohexane-1,3-dione], the pIC50 was 4.82 to 5.52.

As for `Cc1ccc(C2CC(=O)C(=CNCCN3CCN(C(=S)Nc4ccccc4)CC3)C(=O)C2)cc1` (centres unmarked) [Compound 231, 4-(2-(((2,6-dioxo-4-(p-tolyl)cyclohexylidene)methyl)amino)ethyl)-N-phenylpiperazine-1-carbothioamide], the pIC50 was above 5.52.

Take `CN(C)CCNC=C1C(=O)CC(c2ccc(Cl)cc2F)CC1=O` (centres unmarked) [Compound 382, 5-(4-chloro-2-fluorophenyl)-2-(((2-(dimethylamino)ethyl)amino)methylene) cyclohexane-1,3-dione]: the pIC50 is above 5.52.

Take `O=C1CC(c2cccc([N+](=O)[O-])c2)CC(=O)C1=CO` (centres unmarked) [Compound 435, 2-(hydroxymethylene)-5-(3-nitrophenyl)cyclo-hexane-1,3-dione]: the pIC50 was 4.82 to 5.52.

For the compound `COCCOCCOc1ccc(C2CC(=O)C(=CNCCN3CCN(CCO)CC3)C(=O)C2)cc1` (centres unmarked) [Compound 45, 2-(((2-(4-(2-hydroxyethyl)piperazin-1-yl)ethyl)amino)methylene)-5-(4-(2-(2-methoxyethoxy)ethoxy)phenyl) cyclohexane-1,3-dione], the pIC50 was 4.00 to 4.82.

For `O=C1CC(c2ccnc3ccccc23)CC(=O)C1=CO` (centres unmarked) [Compound 431, 2-(hydroxymethylene)-5-(4-quinoline)cyclohexane-1,3-dione], the pIC50 is 4.82 to 5.52.

Consider `CSC=C1C(=O)CC(c2ccccc2)CC1=O` (centres unmarked) [Compound 4A, 2-((methylthio)methylene)-5-phenylcyclohexane-1,3-dione], for which the pIC50 was 4.82 to 5.52.

On to `CN(C)CCNC=C1C(=O)CC(c2ccc(F)c(F)c2F)CC1=O` (centres unmarked) [Compound 401, 2-(((2-(dimethylamino)ethyl)amino)methylene)-5-(2,3,4-trifluorophenyl) cyclohexane-1,3-dione], for which the pIC50 is above 5.52.

`CCN1CCC[C@H]1CNC=C1C(=O)CC(c2ccccc2)CC1=O` (stereo partly drawn) [Compound 171, 2-(((((S)-1-ethylpyrrolidin-2-yl)methyl)amino)methylene)-5-phenylcyclohexane-1,3-dione]: the pIC50 was 4.82 to 5.52.
